Measurements as given in PMC9256669, “Monomethyl auristatin antibody and peptide drug conjugates for trimodal cancer chemo-radio-immunotherapy” (Nature Communications, 2022).
Values joined by “and” are separate entries in the source; they are usually repeats but may differ in a detail not shown here. Equal values may be shown once. Non-standard residues stand in square brackets, D forms with d. Residues, ends and D or L forms follow the SMILES beside them. *: point of attachment. Dolaproine = CO[C@@H]([C@@H]1CCCN1)[C@@H](C)C(=O)O; Dil = CC[C@H](C)[C@H](NC)[C@@H](CC(=O)O)OC; X1 = C[C@@H](N*)[C@@H](O)c1ccccc1; NMeV = CN[C@H](C(=O)O)C(C)C

Legend:
[1] = system: CAL27 parental (WT) tumors; experiment: Orthotopic tongue tumor xenograft therapy; type: in vivo, human cells in NOD SCID mice; conditions: single 2.5 nmole injection
From the text: (§1) Orthotopic tongue xenograft tumors were established in 6-week-old NOD SCID mice by injecting 150,000 CAL27 parental (WT) or PIK3CA H1047R-expressing cells. […] On the last day of tumor xenograft measurements, mice were euthanized, tongues resected, imaged, and fixed. […] IR was delivered as 2 parallel opposed fields. […]
(§2) Tumor cells Ab/ADC Ab/ADC CDX3379-MMAE
(§3) Supplementary Figure 7: CDX3379-MMAE ADC efficacy in tumor xenografts.
(§4) CAL27 parental (WT) or HER3 resistant (PIK3CA H1047R) tumor xenografts established in murine tongues on day 0. a) On day 7, mice i.v. injected with 2.5 nmoles […]
(§5) On the last day of tumor measurement
(§6) (day 16 for WT, day 14 for PIK3CA H1047R tumors), tongues resected, fixed and sectioned. Tissues stained for Ki-67 (Abcam, ab16667) by IHC and counterstained with hematoxylin. Data is representative of 6 independent tumors per tumor cell line and treatment. b) Mice with orthotopic tongue CAL27 PIK3CA H1047R tumors were […]
(§7) MMAE ADC on day 6 and day 8 (n= 6 tumors/group). On the last day of tumor measurements, tongues were resected, fixed, longitudinally sectioned and H&E stained.
(§8) Source data are provided in Source Data file.
(§9) (also on this page, place not known: CAL27-WT CAL27-Resistant UntreatedCDX3379CDX3379 -MMAE 07142128 volume (mm3) Tumor tipTongue a)On i.v.injected)

[2] = system: CAL27 resistant (PIK3CA H1047R) tumors; experiment: Orthotopic tongue tumor xenograft therapy; type: in vivo, human cells in NOD SCID mice; conditions: PIK3CA H1047R-expressing CAL27 orthotopic tongue tumors
From the text: as §1, §2, §3, §4, §5, §6, §7, §8, §9

[3] = Pilot dose studies of CDX3379-MMAE ADC (response to reviewers); type: in vivo
Procedure: compares to MMAE in immune-competent cancer models. We have now tested the hypothesis raised by the Reviewer head on and present new data (Fig. 3h). First, we successfully synthesized a CDX3379-MMAF ADC (Supplementary Figs. 2c & 2d). Then, we tested CDX3379-MMAE + IR to […] directly in B16 […]
these findings, we hypothesize that MMAE mediated bystander effects improve radiosensitized tumor control when compared to MMAF tumor cell radiosensitization and continue with MMAE as our lead radiosensitizing […]
Comment 2: “authors claim that in syngeneic model MMAE lacked therapeutic efficacy irrespective of the coupled tumor-directed delivery vehicle. However, comparison here is misleading, as they compare MMAE activity coupled to an antibody vs a penetrating peptide. Instead, in order to fully address the concept that auristatin MMAE has limited antitumor activity in a syngeneic model a more appropriate control should be used, that is a MMAE coupled to a different mAb targeting other antigen (receptor). In addition, this would reinforce the evidence about the potential of ADC therapy in combination with IR in immunocompetent mouse […]
Response: In principle, we agree with the sentiment raised by the Reviewer to have another ADC targeting a different cell surface receptor. […]

MOC2 = experiment: Cytotoxicity, Alamar Blue assay; type: cell-based, murine; conditions: MOC2, 72 h drug exposure, one value per biological replicate, read-out: IC50 values
Procedure: Murine colorectal (MC38 (ENH204-FP)) cancer cell lines were obtained from Kerafast. Murine head and neck MOC1 and MOC2 were generously provided by Dr. R. Uppaluri. CAL27 PIK3CA H1047R expressing cells and 4MOSC1 cells were generated in Dr. Gutkind’s laboratory and previously characterized[42],[55]. […] MC38 cells were cultured in DMEM supplemented with 10% FBS, 1 mM sodium pyruvate (Gibco), 1% non-essential amino acids (Gibco), and 10 mM HEPES (Gibco). MOC1 and MOC2 cells were cultured in IMDM (Lonza)/F-12K nutrient mixture at a 2:1 mixture with 5% FBS, 5 ng/ml EGF (EMD Millipore), 400 ng/ml hydrocortisone (Sigma), and […] insulin (Sigma). On receipt, each cell line was expanded, cryopreserved as low passage stocks, and routinely tested for mycoplasma. Cisplatin (Enzo Biosciences), paclitaxel (Sigma), and MMAE (Concortis) were reconstituted in DMSO. […] Clinical grade cetuximab (Erbitux, Lilly Medical) was obtained from UCSD Moores Cancer Center Pharmacy.
Cells were plated in 96-well plates and exposed to a drug concentration range for 72 h. Alamar Blue was added to the cells and allowed to incubate for 2–4 h at 37 °C. Plates were analyzed using a plate reader with fluorescence measured at 560 nm. Fractional survival was normalized to untreated control cell fluorescent values. Drug IC50 was calculated using Prism software (GraphPad, La Jolla, CA). Cell viability, cytotoxicity and apoptosis were also measured by ApoTox-Glo Triplex Assay (Promega).
measured by Alamar Blue assay. For Alamar Blue assay cytotoxicity, we measured cell viability at 72 hr of […]

Compound: CDX3379-MMAE: anti-HER3 antibody CDX3379 with 4 MMAE per antibody via MC-VC-PABC linker, labeled with Cy5
- tumor growth (tumor volume, Ki-67) [1]: further enhanced
- tumor growth [2]: significant growth delay
- anti-tumor activity in pilot studies ([3]; 1 nmole CDX3379-MMAE): ineffective
- anti-tumor activity in pilot studies ([3]; 5 nmoles CDX3379-MMAE): anti-tumor activity

Compound: CC[C@H](C)[C@@H]([C@@H](CC(=O)N1CCC[C@H]1[C@H](OC)[C@@H](C)C(=O)N[C@H](C)[C@@H](O)c1ccccc1)OC)N(C)C(=O)[C@@H](NC(=O)[C@@H](NC)C(C)C)C(C)C [MMAE, monomethyl auristatin E] (H-[NMeV]V[Dil][Dolaproine]-X1)
- IC50 (MOC2): 0.00929 µM and 0.0111 µM
